The structures appear in SMILES notation. The source made the active and inactive calls. The rule behind the calls is not given here.

This passage reports Ki and inhibition results from ChEMBL document CHEMBL1145743, “High-throughput synthesis and optimization of thrombin inhibitors via urazole alpha-addition and Michael addition” (Bioorg Med Chem Lett, 2003).

For assay [1], the target named is T1, Prothrombin (Homo sapiens, UniProt P00734). Kind of assay: Inhibitory activity against human thrombin.
The target of assay [2] is T1, Prothrombin. The settings on record: at 400 nM.
Description: Inhibitory activity against thrombin at 400 nM; NA=not active
For assay [3], the target named is T1, Prothrombin. The experiment in a line: Inhibitory activity against thrombin at concentration 400 nM; NA: Not active.
Assay [4] concerns the target T1, Prothrombin. Kind of assay: Inhibitory activity against thrombin; NA=not active.

What is called Ki is the equilibrium dissociation constant of an inhibitor or competing ligand from its target. Read a high Ki as lower affinity. `COC(=O)C(CSc1ccccc1)n1c(=O)n2n(c1=O)C(C(=O)NCc1ccc(N)nc1C)C=CC2` (configuration not stated) yielded an inhibitory constant (Ki) in assay [1] of 32 nM.

In assay [1], `Cc1nc(N)ccc1CNC(=O)C1C=CCn2c(=O)n(C(CSc3ccc(Cl)cc3)C(=O)N3CCCC3)c(=O)n21` (configuration not stated) showed an inhibitory constant (Ki) of 24 nM. `COC(=O)C(CSc1ccc(Br)cc1)n1c(=O)n2n(c1=O)C(C(=O)NCc1ccc(N)nc1C)C=CC2` (configuration not stated) returned a Ki in assay [1] of 83 nM. With `Cc1nc(N)ccc1CNC(=O)C1C=CCn2c(=O)n(C(CSc3ccccc3)C(=O)O)c(=O)n21` (configuration not stated), the Ki in assay [1] worked out at 15 nM. In assay [1], `CCOC(=O)C(CSc1ccc(Br)cc1)n1c(=O)n2n(c1=O)C(C(=O)NCc1ccc(N)nc1C)C=CC2` (configuration not stated) gave a Ki of 0.27 nM. Take `Cc1nc(N)ccc1CNC(=O)C1C=CCn2c(=O)n(C(CNCC(C)C)C(=O)O)c(=O)n21` (configuration not stated): the inhibition entry in assay [2] was “inactive”.

`COC(=O)C(CSc1ccc(Cl)c(Cl)c1)n1c(=O)n2n(c1=O)C(C(=O)NC[C@H]1CC[C@H](N)CC1)C=CC2` (some centres not stated) had an inhibitory constant (Ki) in assay [1] of 0.24 nM. Compound `COC(=O)C(CSc1ccc(OC)cc1)n1c(=O)n2n(c1=O)C(C(=O)NCc1ccc(N)nc1C)C=CC2` (configuration not stated) displayed an inhibitory constant (Ki) in assay [1] of 80 nM. The same measure, in the same setting: the result for `COC(=O)C(CSc1ccc(Cl)c(Cl)c1)n1c(=O)n2n(c1=O)C(C(=O)NCc1ccc(N)nc1C)C=CC2` (configuration not stated) reads 78 nM; that for `Cc1nc(N)ccc1CNC(=O)C1C=CCn2c(=O)n(C(CSc3ccc(Cl)c(Cl)c3)C(=O)OC(C)C)c(=O)n21` (configuration not stated), 53 nM; that for `Cc1nc(N)ccc1CNC(=O)C1C=CCn2c(=O)n(C(CSc3ccc(Cl)cc3)C(=O)OC3CCCCC3)c(=O)n21` (configuration not stated), 0.057 nM. Take `CC(=O)Nc1ccc(SCC(C(=O)O)n2c(=O)n3n(c2=O)C(C(=O)NC[C@H]2CC[C@H](N)CC2)C=CC3)cc1` (some centres not stated): in assay [2], the inhibition entry is “inactive”.

Take `COC(=O)C(CNC1CCCCC1)n1c(=O)n2n(c1=O)C(C(=O)NCc1ccc(N)nc1C)C=CC2` (configuration not stated): in assay [2], the inhibition result is “inactive”. As for `Cc1nc(N)ccc1CNC(=O)C1C=CCn2c(=O)n(C(CSc3ccc(Cl)c(Cl)c3)C(=O)OC3CCCCC3)c(=O)n21` (configuration not stated), in assay [1], the affinity, expressed as Ki, was 87 nM. In assay [1], `COC(=O)C(CSC1CCCCC1)n1c(=O)n2n(c1=O)C(C(=O)NC[C@H]1CC[C@H](N)CC1)C=CC2` (some centres not stated) had an inhibition constant Ki of 91 nM. Regarding `COC(=O)C(CSc1ccccc1)n1c(=O)n2n(c1=O)C(C(=O)NC[C@H]1CC[C@H](N)CC1)C=CC2` (some centres not stated), the inhibitory constant (Ki) in assay [1] turned out to be 2.9 nM. With `Cc1nc(N)ccc1CNC(=O)C1C=CCn2c(=O)n(C(CSc3ccc(Cl)cc3)C(=O)O)c(=O)n21` (configuration not stated), in assay [1], the affinity corresponds to a Ki of 32 nM. Consider `N[C@H]1CC[C@H](CNC(=O)C2C=CCn3c(=O)n(C(CNC4CCCCC4)C(=O)O)c(=O)n32)CC1` (some centres not stated), for which the inhibition result in assay [2] is “inactive”.

On to `N[C@H]1CC[C@H](CNC(=O)C2C=CCn3c(=O)n(C(CSc4ccccc4)C(=O)O)c(=O)n32)CC1` (some centres not stated), for which, in assay [1], the Ki is 36 nM. Turning to `Cc1nc(N)ccc1CNC(=O)C1C=CCn2c(=O)n(C(CSCC(C)C)C(=O)O)c(=O)n21` (configuration not stated), the inhibition entry in assay [2] was “inactive”. In assay [1], `Cc1nc(N)ccc1CNC(=O)C1C=CCn2c(=O)n(C(CSc3ccc(Br)cc3)C(=O)OC3CCCCC3)c(=O)n21` (configuration not stated) yielded a Ki of 1.5 nM. Turning to `COC(=O)C(CSc1ccc(Cl)cc1)n1c(=O)n2n(c1=O)C(C(=O)NC[C@H]1CC[C@H](N)CC1)C=CC2` (some centres not stated), affinity in assay [1] was put at a Ki of 0.32 nM.

As for `Cc1nc(N)ccc1CNC(=O)C1C=CCn2c(=O)n(C(CSc3ccc(Br)cc3)C(=O)N3CCCC3)c(=O)n21` (configuration not stated), affinity in assay [1] was put at a Ki of 30 nM. The compound `COc1ccc(SCC(C(=O)O)n2c(=O)n3n(c2=O)C(C(=O)NCc2ccc(N)nc2C)C=CC3)cc1` (configuration not stated) returned a Ki in assay [1] of 29 nM. On to `COC(=O)C(CSc1ccc(OC)cc1)n1c(=O)n2n(c1=O)C(C(=O)NC[C@H]1CC[C@H](N)CC1)C=CC2` (some centres not stated), for which the Ki in assay [1] was found to be 0.75 nM. `Cc1nc(N)ccc1CNC(=O)C1C=CCn2c(=O)n(C(CSC3CCCCC3)C(=O)O)c(=O)n21` (configuration not stated) returned an inhibition constant (Ki) in assay [1] of 11 nM. In assay [1], `Cc1nc(N)ccc1CNC(=O)C1C=CCn2c(=O)n(C(CSc3ccc(Br)cc3)C(=O)OC(C)C)c(=O)n21` (configuration not stated) registered a Ki of 0.087 nM.

Consider `CCCSCC(C(=O)O)n1c(=O)n2n(c1=O)C(C(=O)NC[C@H]1CC[C@H](N)CC1)C=CC2` (some centres not stated), for which the inhibition result in assay [3] was “inactive”. In the case of `COC(=O)C(CNCC(C)C)n1c(=O)n2n(c1=O)C(C(=O)NCc1ccc(N)nc1C)C=CC2` (configuration not stated), the inhibition result in assay [2] was “inactive”. As for `COC(=O)C(CSC1CCCCC1)n1c(=O)n2n(c1=O)C(C(=O)NCc1ccc(N)nc1C)C=CC2` (configuration not stated), the Ki in assay [1] worked out at 28 nM. Take `Cc1nc(N)ccc1CNC(=O)C1C=CCn2c(=O)n(C(CSc3ccc(Cl)cc3)C(=O)OC(C)C)c(=O)n21` (configuration not stated): the affinity in assay [1], expressed as Ki, was 1.5 nM. Consider `CCCSCC(C(=O)O)n1c(=O)n2n(c1=O)C(C(=O)NCc1ccc(N)nc1C)C=CC2` (configuration not stated), for which the inhibition result in assay [2] is “inactive”. In assay [1], `Cc1nc(N)ccc1CNC(=O)C1C=CCn2c(=O)n(C(CSc3ccc(Br)cc3)C(=O)N3CCOCC3)c(=O)n21` (configuration not stated) yielded a Ki of 39 nM. `COC(=O)C(CSc1ccc(Cl)cc1)n1c(=O)n2n(c1=O)C(C(=O)NCc1ccc(N)nc1C)C=CC2` (configuration not stated): the affinity in assay [1], expressed as Ki, was 82 nM. In the case of `COc1ccc(SCC(C(=O)O)n2c(=O)n3n(c2=O)C(C(=O)NC[C@H]2CC[C@H](N)CC2)C=CC3)cc1` (some centres not stated), the Ki in assay [1] stood at 4.7 nM. The same measure, in the same setting: with `Cc1nc(N)ccc1CNC(=O)C1C=CCn2c(=O)n(C(CSc3ccc(Cl)c(Cl)c3)C(=O)O)c(=O)n21` (configuration not stated) the figure was 22 nM. As for `Cc1nc(N)ccc1CNC(=O)C1C=CCn2c(=O)n(C(CNCc3ccccc3)C(=O)O)c(=O)n21` (configuration not stated), the inhibition entry in assay [2] is “inactive”. As for `COC(=O)C(CSc1ccc(C)cc1C)n1c(=O)n2n(c1=O)C(C(=O)NCc1ccc(N)nc1C)C=CC2` (configuration not stated), the inhibition result in assay [2] was “inactive”.

In assay [1], `N[C@H]1CC[C@H](CNC(=O)C2C=CCn3c(=O)n(C(CSc4ccc(Cl)c(Cl)c4)C(=O)O)c(=O)n32)CC1` (some centres not stated) gave a Ki of 13 nM.

For `N[C@H]1CC[C@H](CNC(=O)C2C=CCn3c(=O)n(C(CSC4CCCCC4)C(=O)O)c(=O)n32)CC1` (some centres not stated), in assay [1], affinity was put at a Ki of 53 nM. In assay [1], `Cc1nc(N)ccc1CNC(=O)C1C=CCn2c(=O)n(C(CSc3ccc(Cl)cc3)C(=O)N3CCOCC3)c(=O)n21` (configuration not stated) gave a Ki of 7.7 nM. `COC(=O)C(CSCC(O)CO)n1c(=O)n2n(c1=O)C(C(=O)NCc1ccc(N)nc1C)C=CC2` (configuration not stated): the inhibition entry in assay [2] is “inactive”.

The compound `N[C@H]1CC[C@H](CNC(=O)C2C=CCn3c(=O)n(C(CSc4ccc(Cl)cc4)C(=O)O)c(=O)n32)CC1` (some centres not stated) returned an inhibitory constant (Ki) in assay [1] of 5.7 nM. `Cc1nc(N)ccc1CNC(=O)C1C=CCn2c(=O)n(C(CSc3ccc(Cl)c(Cl)c3)C(=O)N3CCCC3)c(=O)n21` (configuration not stated) returned an inhibition constant (Ki) in assay [1] of 18 nM. Take `CCOC(=O)C(CSc1ccc(Cl)c(Cl)c1)n1c(=O)n2n(c1=O)C(C(=O)NCc1ccc(N)nc1C)C=CC2` (configuration not stated): in assay [1], affinity was put at a Ki of 28 nM.

The compound `N[C@H]1CC[C@H](CNC(=O)C2C=CCn3c(=O)n(C(CSc4ccc(Br)cc4)C(=O)O)c(=O)n32)CC1` (some centres not stated) registered a Ki in assay [1] of 2.6 nM. For the compound `Cc1nc(N)ccc1CNC(=O)C1C=CCn2c(=O)n(C(CSc3ccc(Br)cc3)C(=O)O)c(=O)n21` (configuration not stated), the Ki result in assay [4] is “Not Active”. The inhibition result in assay [2] was “inactive”. For the compound `Cc1nc(N)ccc1CNC(=O)C1C=CCn2c(=O)n(C(CSc3ccc(Cl)c(Cl)c3)C(=O)N3CCOCC3)c(=O)n21` (configuration not stated), the Ki entry in assay [4] is given as “Not Active”. As to `CCOC(=O)C(CSc1ccc(Cl)cc1)n1c(=O)n2n(c1=O)C(C(=O)NCc1ccc(N)nc1C)C=CC2` (configuration not stated), in assay [4], the Ki entry is “Not Active”. In assay [1], `COC(=O)C(CSc1ccc(Br)cc1)n1c(=O)n2n(c1=O)C(C(=O)NC[C@H]1CC[C@H](N)CC1)C=CC2` (some centres not stated) came in with an inhibitory constant (Ki) of 0.023 nM. Moreover, in assay [2], the inhibition result was “inactive”.
